In article PMC7504639, “Fluorescence Lifetime and Intensity of Thioflavin T as Reporters of Different Fibrillation Stages: Insights Obtained from Fluorescence Up-Conversion and Particle Size Distribution Measurements” (International Journal of Molecular Sciences, 2020):
Where a name gives a salt, the structure may show the parent alone.

Molecular target: T1, Human recombinant insulin (Ins); protofibrils / mature fibrils (Homo sapiens, UniProt P01308)
T1 construct: mature two-chain insulin (cut from proinsulin), recombinant, PanEco; aggregated to amyloid fibrils at pH 2, 62 °C; not the native monomer
Test: fluorescence-mode nanoparticle tracking (fibril staining)
Assay type: binding
Settings: mature amyloid fibrils, not native insulin

T1 sequence (P01308 25-54): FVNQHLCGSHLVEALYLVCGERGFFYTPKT
T1 sequence (P01308 90-110): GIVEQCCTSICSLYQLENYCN

Structure (SMILES): CC[n+]1c(/C=C/c2c(C)cc(N(C)C)cc2C)sc2ccccc21 [2M-DMASEBT, trans2-(′-(dimethylamino)-2,6-dimethylstyryl)-3-ethyl-1,3-benzothiazole tosylate]
- fluorescence-mode nanoparticle tracking (fibril staining): Fibrils were stained using the ThT derivative 2M-DMASEBT
